The target in the test is T1, Cholesteryl ester transfer protein (Homo sapiens, UniProt P11597).
T1 sequence (P11597 whole entry): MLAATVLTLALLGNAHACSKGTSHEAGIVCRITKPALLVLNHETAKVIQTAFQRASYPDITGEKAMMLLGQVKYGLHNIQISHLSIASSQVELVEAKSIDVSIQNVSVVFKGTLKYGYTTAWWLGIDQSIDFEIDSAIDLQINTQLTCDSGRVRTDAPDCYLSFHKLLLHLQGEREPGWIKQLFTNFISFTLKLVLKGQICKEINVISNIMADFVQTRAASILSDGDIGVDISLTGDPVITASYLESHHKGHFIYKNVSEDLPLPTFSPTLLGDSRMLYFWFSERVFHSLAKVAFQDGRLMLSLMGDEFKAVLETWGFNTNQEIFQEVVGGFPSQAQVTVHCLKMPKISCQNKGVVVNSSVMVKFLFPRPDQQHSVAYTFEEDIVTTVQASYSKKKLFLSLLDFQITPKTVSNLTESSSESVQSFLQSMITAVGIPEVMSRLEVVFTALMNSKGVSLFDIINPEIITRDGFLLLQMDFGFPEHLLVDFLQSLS
The experiment in a line: Compound was measured for its inhibitory activity against cholesteryl ester transfer protein (CETP).
For orientation: IC50 means the concentration at which inhibition is half-maximal. In turn, `CCCCCCCCCCCCCCCC(=O)N[C@@H](CO)[C@H](O)/C=C/CC/C=C/CCCCCCCC(C)C` showed an IC50 of 86.3 µM.

Consider `CC(C)CNC(=O)/C=C/[C@@H]1C[C@H]1[C@@H]1C[C@H]1[C@@H]1C[C@H]1[C@@H]1C[C@H]1[C@@H]1C[C@H]1/C=C/[C@@H]1C[C@H]1C`, for which the IC50 came out at 25 µM.

Take `CCCCCCCCCCCCC/C=C/C(O)C(CO)N(C)C` (stereo not given): the IC50 was 6.3 µM.

Take `CCCCCCCCCCCCC/C=C/[C@@H](O)[C@H](CO)NC(=O)CCCCCCCCCCCCCCC`: the midpoint of inhibition, the IC50, lay at 65.6 µM. For the compound `CCCCCCCCCCCCC/C=C/C(O)C(N)CO[C@H]1O[C@H](CO)[C@H](O)[C@H](O)[C@H]1O` (stereo not given in full), the IC50 was determined as 19.7 µM.

For the compound `CCCCCCCCC/C=C/CC/C=C/[C@@H](O)[C@H](CO)NC(=O)CCCCCCCCCCCCCCC`, the midpoint of inhibition, the IC50, lay at 46.8 µM. With `CCCCCCCCCCCCC/C=C/[C@@H](O)[C@@H](N)CO` [SPHINGOSINE], the IC50 was determined as 11.5 µM.

In turn, `CCCCCCC/C=C/C=C/CC/C=C/[C@@H](O)[C@H](CO)NC(=O)CCCCCCCCCCCCCCC` displayed an IC50 of 57.3 µM.

The compound `CCCCCCCCCCCCCCC[C@@H](O)[C@@H](N)CO` (racemic) [DIHYDROSPINGOSINE] came in with an IC50 of 12.9 µM.

In the case of `CCCCCCCCCCCCC/C=C/[C@@H](O)[C@@H](N)COP(=O)([O-])OCC[N+](C)(C)C` [SPHINGOSYLPHOSPHORYLCHLOLINE], half-maximal inhibition (IC50) was put at 157 µM.

For the origin of these results see ChEMBL document CHEMBL1130448, “CETP inhibitory activity of ceramides, isolated from the gorgonian Acabaria Undulata” (Bioorg Med Chem Lett, 1997).
